In ChEMBL document CHEMBL3885881, “DrugMatrix”:

Organism: Rattus norvegicus
Test: DrugMatrix - Regimen: Daily Repeat
Format: toxicity, organism-based, Sprague-Dawley
Set-up: regimen Daily Repeat, gender Male, age 6-8 weeks
Details: in vivo, iv, vehicle 100 % SALINE; for ABSOLUTE BASOPHIL / ABSOLUTE EOSINOPHIL / ABSOLUTE LYMPHOCYTE / ABSOLUTE MONOCYTE / ABSOLUTE SEGMENTED NEUTROPHIL / BASOPHIL / EOSINOPHIL / ERYTHROCYTE COUNT / HEMATOCRIT / HEMOGLOBIN / LEUKOCYTE COUNT / LYMPHOCYTE / MEAN CORPUSCULAR HEMOGLOBIN / MEAN CORPUSCULAR HEMOGLOBIN CONCENTRATION / MEAN CORPUSCULAR VOLUME / MONOCYTE / NEUTROPHIL / NUCLEATED RED BLOOD CELLS / PLATELET COUNT: tissue Blood; for ALANINE AMINOTRANSFERASE / ALBUMIN / ALKALINE PHOSPHATASE / ASPARTATE AMINOTRANSFERASE / BLOOD UREA NITROGEN / CARBON DIOXIDE / CHLORIDE / CHOLESTEROL / CREATINE PHOSPHOKINASE / CREATININE / GLUCOSE / LACTATE DEHYDROGENASE / LIPASE / PHOSPHORUS / POTASSIUM / SODIUM / TOTAL BILIRUBIN / TOTAL PROTEIN / URIC ACID: tissue Plasma
[1] = 0.5 mg/kg, 72 h, dose level Low, time 3 day
[2] = 0.5 mg/kg, 120 h, dose level Low, time 5 day
[3] = […], 72 h, dose 2.5 mg/Kg, dose level High, time 3 day
[4] = […], 120 h, dose 2.5 mg/Kg, dose level High, time 5 day

CC[N+](CC)(CC)CCOc1cccc(OCC[N+](CC)(CC)CC)c1OCC[N+](CC)(CC)CC.[I-].[I-].[I-] [GALLAMINE TRIETHIODIDE]
ABSOLUTE BASOPHIL [1]: 0 CELLS/uL
ABSOLUTE EOSINOPHIL [1]: 0 CELLS/uL
ABSOLUTE LYMPHOCYTE [1]: 12252.67 CELLS/uL
ABSOLUTE MONOCYTE [1]: 379 CELLS/uL
ABSOLUTE SEGMENTED NEUTROPHIL [1]: 1435 CELLS/uL
BASOPHIL [1]: 0%
EOSINOPHIL [1]: 0%
ERYTHROCYTE COUNT [1]: 5.22 x10E6/uL
HEMATOCRIT [1]: 33.63%
HEMOGLOBIN [1]: 13.53 G/DL
LEUKOCYTE COUNT [1]: 14.07 x10E3/uL
LYMPHOCYTE [1]: 87%
MEAN CORPUSCULAR HEMOGLOBIN [1]: 25.93 pg
MEAN CORPUSCULAR HEMOGLOBIN CONCENTRATION [1]: 40.3 G/DL
MEAN CORPUSCULAR VOLUME [1]: 64.4 fL
MONOCYTE [1]: 2.67%
NEUTROPHIL [1]: 10.33%
NUCLEATED RED BLOOD CELLS [1]: 0.33 /100WBC
PLATELET COUNT [1]: 1175 x10E3/uL
ALANINE AMINOTRANSFERASE [1]: 52 u/L
ALBUMIN [1]: 4.07 G/DL
ALKALINE PHOSPHATASE [1]: 372 u/L
ASPARTATE AMINOTRANSFERASE [1]: 79.33 u/L
BLOOD UREA NITROGEN [1]: 15.33 mg/dL
CARBON DIOXIDE [1]: 23.33 mmol/L
CHLORIDE [1]: 104.33 MEQ/L
CHOLESTEROL [1]: 71.33 mg/dL
CREATINE PHOSPHOKINASE [1]: 361.33 u/L
CREATININE [1]: 0.14 mg/dL
GLUCOSE [1]: 161.67 mg/dL
LACTATE DEHYDROGENASE [1]: 163 u/L
LIPASE [1]: 9 u/L
PHOSPHORUS [1]: 13.97 mg/dL
POTASSIUM [1]: 6.65 MEQ/L
SODIUM [1]: 146.57 MEQ/L
TOTAL BILIRUBIN [1]: 0.2 mg/dL
TOTAL PROTEIN [1]: 5.67 G/DL
URIC ACID [1]: 1.4 mg/dL
ABSOLUTE BASOPHIL [2]: 0 CELLS/uL
ABSOLUTE EOSINOPHIL [2]: 43 CELLS/uL
ABSOLUTE LYMPHOCYTE [2]: 13831.33 CELLS/uL
ABSOLUTE MONOCYTE [2]: 112.67 CELLS/uL
ABSOLUTE SEGMENTED NEUTROPHIL [2]: 1346.33 CELLS/uL
BASOPHIL [2]: 0%
EOSINOPHIL [2]: 0.33%
ERYTHROCYTE COUNT [2]: 5.96 x10E6/uL
HEMATOCRIT [2]: 37.33%
HEMOGLOBIN [2]: 14.57 G/DL
LEUKOCYTE COUNT [2]: 15.33 x10E3/uL
LYMPHOCYTE [2]: 90.33%
MEAN CORPUSCULAR HEMOGLOBIN [2]: 24.5 pg
MEAN CORPUSCULAR HEMOGLOBIN CONCENTRATION [2]: 39.03 G/DL
MEAN CORPUSCULAR VOLUME [2]: 62.7 fL
MONOCYTE [2]: 0.67%
NEUTROPHIL [2]: 8.67%
NUCLEATED RED BLOOD CELLS [2]: 0.33 /100WBC
PLATELET COUNT [2]: 1517.33 x10E3/uL
ALANINE AMINOTRANSFERASE [2]: 52.33 u/L
ALBUMIN [2]: 4.17 G/DL
ALKALINE PHOSPHATASE [2]: 369.67 u/L
ASPARTATE AMINOTRANSFERASE [2]: 80.67 u/L
BLOOD UREA NITROGEN [2]: 15.67 mg/dL
CARBON DIOXIDE [2]: 22 mmol/L
CHLORIDE [2]: 104 MEQ/L
CHOLESTEROL [2]: 61.67 mg/dL
CREATINE PHOSPHOKINASE [2]: 215 u/L
CREATININE [2]: 0.26 mg/dL
GLUCOSE [2]: 161 mg/dL
LACTATE DEHYDROGENASE [2]: 282 u/L
LIPASE [2]: 10 u/L
PHOSPHORUS [2]: 14.53 mg/dL
POTASSIUM [2]: 7.06 MEQ/L
SODIUM [2]: 146.97 MEQ/L
TOTAL BILIRUBIN [2]: 0.2 mg/dL
TOTAL PROTEIN [2]: 5.93 G/DL
URIC ACID [2]: 1.57 mg/dL
ABSOLUTE BASOPHIL [3]: 0 CELLS/uL
ABSOLUTE EOSINOPHIL [3]: 0 CELLS/uL
ABSOLUTE LYMPHOCYTE [3]: 15571.67 CELLS/uL
ABSOLUTE MONOCYTE [3]: 0 CELLS/uL
ABSOLUTE SEGMENTED NEUTROPHIL [3]: 1428.33 CELLS/uL
BASOPHIL [3]: 0%
EOSINOPHIL [3]: 0%
ERYTHROCYTE COUNT [3]: 5.32 x10E6/uL
HEMATOCRIT [3]: 34.57%
HEMOGLOBIN [3]: 13.83 G/DL
LEUKOCYTE COUNT [3]: 17 x10E3/uL
LYMPHOCYTE [3]: 91.67%
MEAN CORPUSCULAR HEMOGLOBIN [3]: 25.97 pg
MEAN CORPUSCULAR HEMOGLOBIN CONCENTRATION [3]: 40 G/DL
MEAN CORPUSCULAR VOLUME [3]: 64.93 fL
MONOCYTE [3]: 0%
NEUTROPHIL [3]: 8.33%
NUCLEATED RED BLOOD CELLS [3]: 1 /100WBC
PLATELET COUNT [3]: 1293 x10E3/uL
ALANINE AMINOTRANSFERASE [3]: 50 u/L
ALBUMIN [3]: 4.23 G/DL
ALKALINE PHOSPHATASE [3]: 314.67 u/L
ASPARTATE AMINOTRANSFERASE [3]: 74 u/L
BLOOD UREA NITROGEN [3]: 15.67 mg/dL
CARBON DIOXIDE [3]: 22.33 mmol/L
CHLORIDE [3]: 104.33 MEQ/L
CHOLESTEROL [3]: 65.67 mg/dL
CREATINE PHOSPHOKINASE [3]: 204 u/L
CREATININE [3]: 0.27 mg/dL
GLUCOSE [3]: 155 mg/dL
LACTATE DEHYDROGENASE [3]: 158 u/L
LIPASE [3]: 11.33 u/L
PHOSPHORUS [3]: 12.97 mg/dL
POTASSIUM [3]: 6.92 MEQ/L
SODIUM [3]: 147.33 MEQ/L
TOTAL BILIRUBIN [3]: 0.17 mg/dL
TOTAL PROTEIN [3]: 6 G/DL
URIC ACID [3]: 1.53 mg/dL
ABSOLUTE BASOPHIL [4]: 0 CELLS/uL
ABSOLUTE EOSINOPHIL [4]: 0 CELLS/uL
ABSOLUTE LYMPHOCYTE [4]: 13793.67 CELLS/uL
ABSOLUTE MONOCYTE [4]: 142.67 CELLS/uL
ABSOLUTE SEGMENTED NEUTROPHIL [4]: 830.33 CELLS/uL
BASOPHIL [4]: 0%
EOSINOPHIL [4]: 0%
ERYTHROCYTE COUNT [4]: 5.65 x10E6/uL
HEMATOCRIT [4]: 35.97%
HEMOGLOBIN [4]: 14.53 G/DL
LEUKOCYTE COUNT [4]: 14.77 x10E3/uL
LYMPHOCYTE [4]: 93.33%
MEAN CORPUSCULAR HEMOGLOBIN [4]: 25.73 pg
MEAN CORPUSCULAR HEMOGLOBIN CONCENTRATION [4]: 40.4 G/DL
MEAN CORPUSCULAR VOLUME [4]: 63.63 fL
MONOCYTE [4]: 1%
NEUTROPHIL [4]: 5.67%
NUCLEATED RED BLOOD CELLS [4]: 0.33 /100WBC
PLATELET COUNT [4]: 1259.67 x10E3/uL
ALANINE AMINOTRANSFERASE [4]: 54 u/L
ALBUMIN [4]: 4.23 G/DL
ALKALINE PHOSPHATASE [4]: 276.67 u/L
ASPARTATE AMINOTRANSFERASE [4]: 81.33 u/L
BLOOD UREA NITROGEN [4]: 15.67 mg/dL
CARBON DIOXIDE [4]: 21.33 mmol/L
CHLORIDE [4]: 105 MEQ/L
CHOLESTEROL [4]: 56.33 mg/dL
CREATINE PHOSPHOKINASE [4]: 248 u/L
CREATININE [4]: 0.19 mg/dL
GLUCOSE [4]: 147 mg/dL
LACTATE DEHYDROGENASE [4]: 275.33 u/L
LIPASE [4]: 10 u/L
PHOSPHORUS [4]: 12.67 mg/dL
POTASSIUM [4]: 6.58 MEQ/L
SODIUM [4]: 146.13 MEQ/L
TOTAL BILIRUBIN [4]: 0.2 mg/dL
TOTAL PROTEIN [4]: 6.13 G/DL
URIC ACID [4]: 1.47 mg/dL
